Assays:
Assay type in all cases: biochemical
JAK3 = JAK3 (Homo sapiens (Human), UniProt P52333); test: JAK/TYK2 Assay (Kinase Glo luminescence), JAK3; conditions: 1.5 nM enzyme, 2 uM ATP, 4 uM pEY, 1 hr
Protocol: (§1) 10 mM test compound stock or 1 mM control compound stock (tofocitinib, ruxolitinib or staurosporine) in DMSO was diluted to 0.4 mM in DMSO. A 3-fold series dilution was then performed in DMSO to generate 10 different compound concentrations. The assay was carried out in 384-well white plate. 0.5 uL of 40× compound DMSO solution at different concentrations was mixed with 10 uL 2× enzyme prepared in reaction buffer (20 mM HEPES, 10 mM MgCl2, 0.01% Tween, 1 mM DTT, pH 7.5). 10 uL 2× substrate mixture prepared in reaction buffer was then added to start the reaction. A short spin was done to settle down all solutions to the bottom of the plate. Final concentrations of test compound in the reaction mixture were 10000, 3333, 1111, 370, 123, 41.2, 13.7, 4.57, 1.52 and 0.51 nM. Concentrations of control compound were ten times less. Enzymatic reaction was conducted at 25° C. for 1-2 hours. 10 uL of Kinase Glo Reagents was added to stop the reaction and generate the luminescent signal which was measured using Envision. Luminescence signal was inversely related to kinase activity. […] The mixture without any compound was the positive control.

TYK2 = TYK2 (Homo sapiens (Human), UniProt P29597); test: JAK/TYK2 Assay (Kinase Glo luminescence), TYK2; conditions: 9 nM enzyme, 2 uM ATP, 30 uM IRS-1, 1 hr
Protocol: as §1

JAK1 = JAK1 (Homo sapiens (Human), UniProt P23458); test: JAK/TYK2 Assay (Kinase Glo luminescence), JAK1; conditions: 7.5 nM enzyme, 2 uM ATP, 30 uM IRS-1, 1 hr
Protocol: as §1

JAK2 = JAK2 (Homo sapiens (Human), UniProt O60674); test: JAK/TYK2 Assay (Kinase Glo luminescence), JAK2; conditions: 0.8 nM enzyme, 2 uM ATP, 4 uM pEY, 1 hr
Protocol: as §1

TYK2, sequence (P29597 whole entry, species assumed): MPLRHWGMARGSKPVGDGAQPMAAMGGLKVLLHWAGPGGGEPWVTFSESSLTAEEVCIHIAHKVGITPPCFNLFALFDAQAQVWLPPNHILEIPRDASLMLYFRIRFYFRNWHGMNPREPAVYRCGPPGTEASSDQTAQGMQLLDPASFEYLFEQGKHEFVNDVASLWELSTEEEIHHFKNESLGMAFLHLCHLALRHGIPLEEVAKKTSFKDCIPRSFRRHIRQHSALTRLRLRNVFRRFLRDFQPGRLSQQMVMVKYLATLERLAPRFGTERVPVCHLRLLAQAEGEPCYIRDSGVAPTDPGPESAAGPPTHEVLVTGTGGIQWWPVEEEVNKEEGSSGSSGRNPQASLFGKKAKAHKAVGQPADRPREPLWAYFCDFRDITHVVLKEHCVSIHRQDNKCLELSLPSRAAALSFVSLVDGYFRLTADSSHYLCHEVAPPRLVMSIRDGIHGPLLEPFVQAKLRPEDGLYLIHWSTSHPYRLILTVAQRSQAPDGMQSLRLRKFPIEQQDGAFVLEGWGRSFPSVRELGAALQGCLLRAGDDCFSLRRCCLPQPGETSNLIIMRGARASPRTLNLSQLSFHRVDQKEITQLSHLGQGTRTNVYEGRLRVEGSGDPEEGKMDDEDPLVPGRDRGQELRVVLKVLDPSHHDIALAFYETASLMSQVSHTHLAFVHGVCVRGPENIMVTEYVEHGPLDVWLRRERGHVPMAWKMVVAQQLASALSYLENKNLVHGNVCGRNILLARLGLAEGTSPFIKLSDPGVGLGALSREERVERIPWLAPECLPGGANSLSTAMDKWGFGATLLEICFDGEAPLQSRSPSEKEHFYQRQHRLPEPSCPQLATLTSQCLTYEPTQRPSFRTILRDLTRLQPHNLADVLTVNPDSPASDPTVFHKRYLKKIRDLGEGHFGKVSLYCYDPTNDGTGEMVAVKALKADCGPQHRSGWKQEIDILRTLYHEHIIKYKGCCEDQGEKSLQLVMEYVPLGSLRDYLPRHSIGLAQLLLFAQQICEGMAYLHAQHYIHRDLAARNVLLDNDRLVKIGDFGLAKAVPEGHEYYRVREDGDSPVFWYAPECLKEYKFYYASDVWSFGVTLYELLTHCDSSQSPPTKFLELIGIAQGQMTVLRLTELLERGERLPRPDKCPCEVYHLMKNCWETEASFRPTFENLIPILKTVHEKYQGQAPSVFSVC
JAK1, sequence (P23458 whole entry, species assumed): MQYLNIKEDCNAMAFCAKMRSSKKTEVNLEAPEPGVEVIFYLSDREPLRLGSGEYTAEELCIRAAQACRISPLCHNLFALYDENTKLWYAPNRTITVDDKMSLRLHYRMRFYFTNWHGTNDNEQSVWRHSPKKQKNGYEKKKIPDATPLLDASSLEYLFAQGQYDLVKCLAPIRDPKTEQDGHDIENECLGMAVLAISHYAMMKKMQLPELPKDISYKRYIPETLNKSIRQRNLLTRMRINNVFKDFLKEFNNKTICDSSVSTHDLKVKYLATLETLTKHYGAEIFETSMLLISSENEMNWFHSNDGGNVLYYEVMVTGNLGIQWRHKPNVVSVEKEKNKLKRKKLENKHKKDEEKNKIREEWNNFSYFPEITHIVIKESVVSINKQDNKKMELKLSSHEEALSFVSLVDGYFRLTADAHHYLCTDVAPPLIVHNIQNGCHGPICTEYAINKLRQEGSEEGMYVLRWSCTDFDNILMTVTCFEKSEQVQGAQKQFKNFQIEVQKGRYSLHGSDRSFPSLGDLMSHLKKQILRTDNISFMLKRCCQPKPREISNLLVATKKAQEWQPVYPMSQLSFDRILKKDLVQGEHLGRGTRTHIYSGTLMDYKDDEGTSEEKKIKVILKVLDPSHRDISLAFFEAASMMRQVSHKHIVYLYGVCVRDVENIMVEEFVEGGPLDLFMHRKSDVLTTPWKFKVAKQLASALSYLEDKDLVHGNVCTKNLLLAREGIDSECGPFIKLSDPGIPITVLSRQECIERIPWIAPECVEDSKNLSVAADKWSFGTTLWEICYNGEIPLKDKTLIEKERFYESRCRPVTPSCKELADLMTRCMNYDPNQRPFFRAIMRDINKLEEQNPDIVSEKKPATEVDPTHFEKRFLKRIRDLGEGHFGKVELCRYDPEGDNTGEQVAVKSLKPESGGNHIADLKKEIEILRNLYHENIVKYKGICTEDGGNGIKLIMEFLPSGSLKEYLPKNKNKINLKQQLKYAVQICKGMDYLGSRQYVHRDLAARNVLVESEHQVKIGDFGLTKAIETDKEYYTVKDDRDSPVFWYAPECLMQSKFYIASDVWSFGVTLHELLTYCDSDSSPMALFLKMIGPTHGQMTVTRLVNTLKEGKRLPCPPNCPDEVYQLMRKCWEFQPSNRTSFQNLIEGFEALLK
JAK2, sequence (O60674 whole entry, species assumed): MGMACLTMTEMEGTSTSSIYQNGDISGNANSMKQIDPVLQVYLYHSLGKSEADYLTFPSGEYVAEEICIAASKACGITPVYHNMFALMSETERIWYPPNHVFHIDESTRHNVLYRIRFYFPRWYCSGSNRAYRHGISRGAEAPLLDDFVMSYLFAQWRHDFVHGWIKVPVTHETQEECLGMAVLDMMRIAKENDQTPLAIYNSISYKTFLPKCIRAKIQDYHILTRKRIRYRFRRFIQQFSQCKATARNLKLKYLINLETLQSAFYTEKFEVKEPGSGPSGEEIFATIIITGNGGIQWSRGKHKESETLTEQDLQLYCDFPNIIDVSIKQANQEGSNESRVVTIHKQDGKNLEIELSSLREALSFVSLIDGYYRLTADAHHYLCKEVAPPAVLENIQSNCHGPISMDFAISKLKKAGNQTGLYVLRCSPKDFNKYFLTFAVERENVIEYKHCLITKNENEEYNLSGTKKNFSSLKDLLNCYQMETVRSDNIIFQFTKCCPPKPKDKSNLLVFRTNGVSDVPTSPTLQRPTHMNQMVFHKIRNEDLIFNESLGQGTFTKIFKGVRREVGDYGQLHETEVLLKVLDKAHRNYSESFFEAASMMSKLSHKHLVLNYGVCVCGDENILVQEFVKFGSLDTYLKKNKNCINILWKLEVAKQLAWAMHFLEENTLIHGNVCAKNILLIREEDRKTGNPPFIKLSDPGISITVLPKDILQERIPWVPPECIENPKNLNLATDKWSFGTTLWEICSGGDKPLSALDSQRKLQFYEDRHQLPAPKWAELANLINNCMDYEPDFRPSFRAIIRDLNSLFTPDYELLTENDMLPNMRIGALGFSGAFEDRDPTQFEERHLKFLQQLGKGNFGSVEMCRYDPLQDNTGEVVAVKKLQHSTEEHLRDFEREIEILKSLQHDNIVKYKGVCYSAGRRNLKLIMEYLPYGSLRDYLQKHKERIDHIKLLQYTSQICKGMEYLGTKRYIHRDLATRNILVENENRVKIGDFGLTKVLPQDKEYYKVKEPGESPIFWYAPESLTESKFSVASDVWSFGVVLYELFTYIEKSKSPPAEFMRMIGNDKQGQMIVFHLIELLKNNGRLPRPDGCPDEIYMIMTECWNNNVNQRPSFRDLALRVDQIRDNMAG
JAK3, sequence (P52333 whole entry, species assumed): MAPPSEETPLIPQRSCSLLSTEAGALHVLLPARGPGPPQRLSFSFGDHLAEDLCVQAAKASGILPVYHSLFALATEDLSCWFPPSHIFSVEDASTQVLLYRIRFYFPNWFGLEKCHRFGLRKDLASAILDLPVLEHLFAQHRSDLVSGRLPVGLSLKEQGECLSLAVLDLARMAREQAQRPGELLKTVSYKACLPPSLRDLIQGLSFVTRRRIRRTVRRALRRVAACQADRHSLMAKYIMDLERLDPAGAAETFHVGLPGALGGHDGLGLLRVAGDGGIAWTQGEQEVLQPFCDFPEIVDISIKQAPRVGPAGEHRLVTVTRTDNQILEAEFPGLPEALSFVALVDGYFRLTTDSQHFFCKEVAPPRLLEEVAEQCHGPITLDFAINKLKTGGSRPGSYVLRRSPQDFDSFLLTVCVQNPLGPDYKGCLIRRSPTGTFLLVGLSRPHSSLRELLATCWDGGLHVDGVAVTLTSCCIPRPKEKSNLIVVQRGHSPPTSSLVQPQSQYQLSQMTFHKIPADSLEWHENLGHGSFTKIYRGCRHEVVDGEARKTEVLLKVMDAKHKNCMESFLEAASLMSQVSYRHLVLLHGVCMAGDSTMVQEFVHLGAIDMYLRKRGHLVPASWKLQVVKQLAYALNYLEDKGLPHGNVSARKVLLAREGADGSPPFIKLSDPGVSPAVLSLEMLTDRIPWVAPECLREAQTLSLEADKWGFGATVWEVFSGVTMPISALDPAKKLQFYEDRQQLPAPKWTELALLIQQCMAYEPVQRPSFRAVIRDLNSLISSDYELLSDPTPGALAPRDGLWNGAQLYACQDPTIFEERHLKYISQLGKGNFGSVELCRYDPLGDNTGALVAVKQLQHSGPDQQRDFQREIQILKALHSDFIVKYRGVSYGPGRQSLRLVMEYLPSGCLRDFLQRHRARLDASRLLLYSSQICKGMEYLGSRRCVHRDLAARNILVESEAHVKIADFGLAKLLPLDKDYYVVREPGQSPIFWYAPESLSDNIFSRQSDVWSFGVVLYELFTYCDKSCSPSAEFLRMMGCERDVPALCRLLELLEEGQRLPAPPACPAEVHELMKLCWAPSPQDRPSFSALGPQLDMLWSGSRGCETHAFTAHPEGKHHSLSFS

| Structure (SMILES) | IC50 (JAK3) [µM] | IC50 (TYK2) [µM] | IC50 (JAK1) [µM] | IC50 (JAK2) [µM] |
| --- | --- | --- | --- | --- |
| CC[C@H](Cn1ccc2cnc(Nc3cnn(CC(=O)O[C@@H]4C[C@@H](C(=O)OC)N(C)C4)c3)nc21)C(C)C [Compound 131, methyl (2S,4R)-4-(2-(4-((7-((S)-2-ethyl-3-methylbutyl)-7H-pyrrolo[2,3-d]pyrimidin-2-yl)amino)-1H-pyrazol-1-yl)acetoxy)-1-methylpyrrolidine-2-carboxylate] | < 0.1 | < 0.1 | < 0.1 | < 0.1 |
| CCOC(=O)[C@@H]1C[C@@H](OC(=O)Cn2cc(Nc3ncc4ccn(C[C@@H](CC)C(C)C)c4n3)cn2)CN1C [Compound 133, ethyl (2S,4R)-4-(2-(4-((7-((S)-2-ethyl-3-methylbutyl)-7H-pyrrolo[2,3-d]pyrimidin-2-yl)amino)-1H-pyrazol-1-yl)acetoxy)-1-methylpyrrolidine-2-carboxylate] | < 0.1 | < 0.1 | < 0.1 | < 0.1 |
| CC[C@H](Cn1ccc2cnc(Nc3cnn(CC(=O)O[C@@H]4C[C@@H](C(=O)OC(C)C)N(C)C4)c3)nc21)C(C)C [Compound 134, isopropyl (2S,4R)-4-(2-(4-((7-((S)-2-ethyl-3-methylbutyl)-7H-pyrrolo[2,3-d]pyrimidin-2-yl)amino)-1H-pyrazol-1-yl)acetoxy)-1-methylpyrrolidine-2-carboxylate] | 0.1 to 1 | 0.1 to 1 | < 0.1 | 0.1 to 1 |
| CC[C@H](Cn1ccc2cnc(Nc3cnn(CC(=O)O[C@@H]4C[C@@H](C(=O)O)N(C)C4)c3)nc21)C(C)C [Compound 135, (2S,4R)-4-(2-(4-((7-((S)-2-ethyl-3-methylbutyl)-7H-pyrrolo[2,3-d]pyrimidin-2-yl)amino)-1H-pyrazol-1-yl)acetoxy)-1-methylpyrrolidine-2-carboxylic acid] |  | 0.1 to 1 | 0.1 to 1 | 0.1 to 1 |

— patent publication US11459333B2, “Substituted pyrrolo[2,3-d]pyrimidines as JAK inhibitors” (Vimalan Biosciences, Inc., priority 2019, dated 2022)
